In article PMC12446458, “Structural basis for DNA break sensing by human MRE11-RAD50-NBS1 and its regulation by telomeric factor TRF2” (Nature Communications, 2025):

T1: MR complex (human MRE11-RAD50) (Homo sapiens, UniProt Q92878)
T1 construct: MR complex, no NBS1; with Double-strand break repair protein MRE11
T1 sequence (Q92878 1-1312): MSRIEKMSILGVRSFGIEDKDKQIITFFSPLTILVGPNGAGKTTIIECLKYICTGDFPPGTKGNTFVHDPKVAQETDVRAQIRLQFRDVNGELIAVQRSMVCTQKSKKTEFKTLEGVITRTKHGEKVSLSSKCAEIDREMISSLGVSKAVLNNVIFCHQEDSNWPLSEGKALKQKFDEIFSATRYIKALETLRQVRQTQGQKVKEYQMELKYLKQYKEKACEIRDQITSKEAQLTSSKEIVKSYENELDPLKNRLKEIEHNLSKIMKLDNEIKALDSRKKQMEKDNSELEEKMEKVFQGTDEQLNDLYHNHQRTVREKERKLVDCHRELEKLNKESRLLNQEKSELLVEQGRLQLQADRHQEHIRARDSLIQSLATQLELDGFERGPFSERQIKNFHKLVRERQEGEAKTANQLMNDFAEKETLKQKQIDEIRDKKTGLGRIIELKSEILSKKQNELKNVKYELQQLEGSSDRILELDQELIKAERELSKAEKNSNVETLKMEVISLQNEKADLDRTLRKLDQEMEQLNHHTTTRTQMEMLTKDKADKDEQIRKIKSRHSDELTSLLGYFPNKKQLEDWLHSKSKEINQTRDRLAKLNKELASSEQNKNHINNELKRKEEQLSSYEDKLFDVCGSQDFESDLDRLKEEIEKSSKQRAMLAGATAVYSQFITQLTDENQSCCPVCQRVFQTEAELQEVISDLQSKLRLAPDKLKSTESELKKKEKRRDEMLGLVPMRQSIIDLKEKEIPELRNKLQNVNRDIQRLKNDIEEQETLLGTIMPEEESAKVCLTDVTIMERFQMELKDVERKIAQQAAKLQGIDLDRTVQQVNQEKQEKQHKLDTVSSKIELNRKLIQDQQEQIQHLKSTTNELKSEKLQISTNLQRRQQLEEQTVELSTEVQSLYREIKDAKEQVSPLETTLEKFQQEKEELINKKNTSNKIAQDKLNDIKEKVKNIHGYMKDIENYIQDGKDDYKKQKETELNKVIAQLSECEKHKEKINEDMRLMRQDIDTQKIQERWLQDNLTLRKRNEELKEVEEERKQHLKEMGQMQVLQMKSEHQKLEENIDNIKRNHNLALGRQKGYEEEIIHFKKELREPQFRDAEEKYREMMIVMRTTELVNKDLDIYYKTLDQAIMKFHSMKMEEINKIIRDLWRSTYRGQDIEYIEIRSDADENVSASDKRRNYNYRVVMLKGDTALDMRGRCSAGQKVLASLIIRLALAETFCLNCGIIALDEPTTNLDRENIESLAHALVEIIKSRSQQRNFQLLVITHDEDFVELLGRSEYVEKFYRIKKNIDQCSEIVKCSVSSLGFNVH
T1 sequence (P49959 2-708 partner): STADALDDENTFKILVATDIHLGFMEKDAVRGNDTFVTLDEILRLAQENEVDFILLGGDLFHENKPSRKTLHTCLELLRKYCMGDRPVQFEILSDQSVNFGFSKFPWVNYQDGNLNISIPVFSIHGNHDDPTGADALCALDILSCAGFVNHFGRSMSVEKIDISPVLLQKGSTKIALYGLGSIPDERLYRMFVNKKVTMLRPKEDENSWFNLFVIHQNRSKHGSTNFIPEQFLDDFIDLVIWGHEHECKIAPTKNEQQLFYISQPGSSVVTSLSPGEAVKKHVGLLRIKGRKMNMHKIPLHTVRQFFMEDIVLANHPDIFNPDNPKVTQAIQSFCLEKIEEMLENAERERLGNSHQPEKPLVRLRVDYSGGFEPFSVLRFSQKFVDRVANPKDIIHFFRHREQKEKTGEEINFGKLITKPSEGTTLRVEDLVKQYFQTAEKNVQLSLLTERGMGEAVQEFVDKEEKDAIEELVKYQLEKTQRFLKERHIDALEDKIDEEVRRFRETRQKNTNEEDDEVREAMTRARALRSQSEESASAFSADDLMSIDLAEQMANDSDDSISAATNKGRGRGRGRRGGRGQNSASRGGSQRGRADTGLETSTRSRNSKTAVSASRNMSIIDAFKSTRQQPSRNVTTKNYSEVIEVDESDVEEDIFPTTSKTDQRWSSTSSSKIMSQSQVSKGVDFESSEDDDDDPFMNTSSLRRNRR

T2: MRN complex (human MRE11-RAD50-NBS1) (Homo sapiens, UniProt Q92878)
T2 construct: Expi293F (MRE11 H129N) or Hi5 insect cells (wild type); with Double-strand break repair protein MRE11; Nibrin
T2 sequence (Q92878 1-1312): T1 sequence (Q92878 1-1312)
T2 sequence (P49959 2-708 partner): T1 sequence (P49959 2-708 partner)
T2 sequence (O60934 1-754 partner): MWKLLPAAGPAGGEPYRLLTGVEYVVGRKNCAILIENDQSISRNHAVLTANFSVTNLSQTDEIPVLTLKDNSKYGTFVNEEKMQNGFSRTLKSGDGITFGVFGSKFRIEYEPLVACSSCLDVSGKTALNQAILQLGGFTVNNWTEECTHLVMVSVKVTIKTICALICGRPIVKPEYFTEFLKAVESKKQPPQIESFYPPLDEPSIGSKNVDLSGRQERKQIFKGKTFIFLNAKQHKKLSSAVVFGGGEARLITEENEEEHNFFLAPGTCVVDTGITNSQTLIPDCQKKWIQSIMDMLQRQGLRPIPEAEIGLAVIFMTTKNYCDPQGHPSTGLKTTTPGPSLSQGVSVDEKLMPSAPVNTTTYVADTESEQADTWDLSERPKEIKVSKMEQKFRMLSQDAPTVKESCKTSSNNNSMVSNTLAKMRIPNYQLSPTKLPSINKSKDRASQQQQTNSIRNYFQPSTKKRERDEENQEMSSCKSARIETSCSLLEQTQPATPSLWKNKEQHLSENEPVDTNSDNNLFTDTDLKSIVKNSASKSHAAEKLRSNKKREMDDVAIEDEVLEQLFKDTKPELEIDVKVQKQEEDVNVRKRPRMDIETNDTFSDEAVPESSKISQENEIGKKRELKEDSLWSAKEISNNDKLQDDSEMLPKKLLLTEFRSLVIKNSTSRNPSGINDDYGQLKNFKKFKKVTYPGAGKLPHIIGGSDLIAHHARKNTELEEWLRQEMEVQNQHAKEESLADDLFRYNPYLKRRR

B1: 64 bp Myb DNA, 6-FAM (dsDNA)
DNA 1: TCTAGGGTTAGGGTTAGATTAACGCTTCTGGAGAAACTCAACGAGCTCTAACCCTAACCCTAGA
DNA 2: TCTAGGGTTAGGGTTAGAGCTCGTTGAGTTTCTCCAGAAGCGTTAATCTAACCCTAACCCTAGA

Experiments:
[1] = biological target: T1, MR complex (human MRE11-RAD50); experiment: NADH-coupled ATPase assay; type: biochemical; details: 0.15 mM ATP, 2 mM MgCl2, 1 mM MnCl2, pH 7.5, 37 °C; with and without 64 bp Myb DNA; rate in figure only
[2] = biological target: T2, MRN complex (human MRE11-RAD50-NBS1); experiment: NADH-coupled ATPase assay; type: biochemical; details: 0.15 mM ATP, 2 mM MgCl2, 1 mM MnCl2, pH 7.5, 37 °C; with and without 64 bp Myb DNA; rate in figure only; MRE11 wild type or H129N not clearly told for this assay
TRF2 full length = TRF2 full length (Homo sapiens, UniProt Q15554 1-542); experiment: fluorescence anisotropy; 1 mM ATP, 5 mM Mg2+; two specific binding sites fit; FA: 25 mM HEPES pH 8.0, 100 mM NaCl, 5 mM MgCl2, 0.2 mg/ml BSA, 1 mM DTT, 1 mM ATP unless stated, 30 nM 6-FAM DNA, read over 30 min; temperature not stated; details: protein: recombinant; tags: MBP removed (3C); C-terminal His10; chain copies: 2; blunt
Chain of TRF2 full length (Q15554 whole entry): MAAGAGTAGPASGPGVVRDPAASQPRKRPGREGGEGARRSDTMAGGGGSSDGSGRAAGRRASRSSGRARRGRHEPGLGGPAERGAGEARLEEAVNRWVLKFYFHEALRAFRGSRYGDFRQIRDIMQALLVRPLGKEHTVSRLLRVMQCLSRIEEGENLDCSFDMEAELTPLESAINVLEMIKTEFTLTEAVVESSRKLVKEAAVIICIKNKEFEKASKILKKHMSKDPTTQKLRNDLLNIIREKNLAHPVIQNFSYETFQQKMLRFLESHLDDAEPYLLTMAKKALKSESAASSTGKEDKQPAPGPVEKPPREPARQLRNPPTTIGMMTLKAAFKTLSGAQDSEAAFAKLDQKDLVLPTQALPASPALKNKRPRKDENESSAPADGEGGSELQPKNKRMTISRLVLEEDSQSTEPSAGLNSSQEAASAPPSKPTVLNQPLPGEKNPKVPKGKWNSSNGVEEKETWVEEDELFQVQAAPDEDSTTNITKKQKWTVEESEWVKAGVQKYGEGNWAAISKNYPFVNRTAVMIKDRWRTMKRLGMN

Molecule	NADH-coupled ATPase assay [1]	NADH-coupled ATPase assay [2]	Kd (TRF2 full length) [nM]
Nc1ncnc2c1ncn2[C@@H]1O[C@H](COP(=O)(O)OP(=O)(O)OP(=O)(O)O)[C@@H](O)[C@H]1O [ATP]	ATPase activity of MR(N) complex stimulated by DNA binding	The purified MRN complex showed the characteristic DNA-stimulated ATPase activity	–
B1	–	–	121
